Results published in patent US4745124A, “Orally effective anti-hypertensive agents” (priority 1983, dated 1988).
Like-named read-outs stand apart in the source and are kept apart here. No end group written: not given here. *: point of attachment. Bz = O=C(c1ccccc1)*

Key:
[1] = molecular target: T1, angiotensin converting enzyme (human urinary ACE) (Homo sapiens, UniProt P12821); experiment: ACE activity assay, I50 (Example 216A); type: biochemical; conditions: Benzoyl-GlyHisLeu 1×10^-4 M, Hepes pH 8.0, 37° C, in vitro
T1 construct: ACE purified from human urine; from tissue; host or cells: human urine (ultrafiltration and Sephacryl S-200, first eluting peak; prepared as in Ryan et al., Tissue and Cell 10, 555 (1978))
T1 sequence (P12821 30-1232 limits assumed): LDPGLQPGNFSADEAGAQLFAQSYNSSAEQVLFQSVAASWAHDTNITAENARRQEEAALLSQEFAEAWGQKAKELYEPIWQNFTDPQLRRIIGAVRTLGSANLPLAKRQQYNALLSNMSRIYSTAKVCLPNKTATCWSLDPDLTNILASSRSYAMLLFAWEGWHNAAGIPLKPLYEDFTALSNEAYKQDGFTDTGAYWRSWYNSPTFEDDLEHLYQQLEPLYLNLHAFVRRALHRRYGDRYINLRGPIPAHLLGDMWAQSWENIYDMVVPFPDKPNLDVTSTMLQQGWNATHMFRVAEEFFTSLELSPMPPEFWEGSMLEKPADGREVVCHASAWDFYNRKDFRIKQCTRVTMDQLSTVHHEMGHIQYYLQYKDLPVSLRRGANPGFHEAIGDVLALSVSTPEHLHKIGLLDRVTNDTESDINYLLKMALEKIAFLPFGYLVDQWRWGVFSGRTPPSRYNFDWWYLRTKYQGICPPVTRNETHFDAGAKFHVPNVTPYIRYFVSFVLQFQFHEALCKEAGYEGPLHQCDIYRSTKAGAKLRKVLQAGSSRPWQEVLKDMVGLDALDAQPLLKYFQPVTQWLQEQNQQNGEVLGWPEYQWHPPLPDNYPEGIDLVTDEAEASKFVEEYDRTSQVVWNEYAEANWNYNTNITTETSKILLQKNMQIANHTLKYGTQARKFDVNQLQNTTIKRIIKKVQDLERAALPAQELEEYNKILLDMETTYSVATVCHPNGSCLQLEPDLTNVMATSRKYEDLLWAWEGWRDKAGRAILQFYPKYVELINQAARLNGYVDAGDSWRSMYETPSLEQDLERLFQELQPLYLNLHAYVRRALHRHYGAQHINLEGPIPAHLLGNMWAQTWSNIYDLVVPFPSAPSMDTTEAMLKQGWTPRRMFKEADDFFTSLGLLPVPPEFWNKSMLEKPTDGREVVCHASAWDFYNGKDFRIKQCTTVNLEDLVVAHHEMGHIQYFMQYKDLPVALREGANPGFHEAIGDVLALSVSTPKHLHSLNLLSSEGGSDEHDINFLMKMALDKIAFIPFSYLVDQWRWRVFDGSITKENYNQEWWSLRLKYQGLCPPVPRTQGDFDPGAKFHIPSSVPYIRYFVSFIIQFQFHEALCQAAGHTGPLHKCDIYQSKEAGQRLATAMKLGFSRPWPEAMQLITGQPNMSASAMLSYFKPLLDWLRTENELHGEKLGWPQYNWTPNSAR

[2] = test system: pressor effects of angiotensin I; experiment: oral effectiveness: blood pressure response to angiotensin I in anesthetized rats; type: in vivo, rat; conditions: oral 20 μmol/kg
Description: Rats (210-290 g body weight) were fasted overnight and then anesthetized with intraperitoneal pentobarbital, 50-60 mg/kg. Tracheostomy was performed and the animals were ventilated mechanically. A cannula was inserted into a femoral vein for injection of angiotensin I or II, and a second cannula was inserted into a common carotid artery for direct measurement of arterial blood pressure. Heparin, 1,000 units, was injected via the femoral vein to prevent coagulation. Blood pressure was measured with a pressure transducer connected to a polygraph. The rats were injected with 80 ng of angiotensin I or angiotensin II in 20 μl of 0.9 g % NaCl; an amount of antiotensin I or II sufficient to raise mean arterial blood pressure by 27-40 mm Hg. After the responsiveness of a given rat to angiotensins I and II was established, compound (I), at 2 or 5 mg/kg (drug dissolved in 0.5 ml of H2 O plus 10 μl of 1N NaHCO3), was given via a stomach tube. At timed intervals, the effects of 80 ng of angiotensin I or angiotensin II on mean arterial blood pressure were tested.
Rats were prepared as described in Example 222. Compound (II) [N-benzoyl-L-phenylalanylthiopropanoyl)-L-proline] was given orally, via a stomach tube, at a dose of 12 mg/kg or 20 mg/kg. Compound (II) was dissolved in 0.5 ml of H2 O plus 10 μl of 1N NaHCO3. In all other respects, the experimental preparations were exactly as described in Example 222.
Rats (210-290 g body weight) were fasted overnight and then anesthetized with intraperitoneal pentobarbital, 50-60 mg/kg. Tracheostomy was performed and the animals were ventilated mechanically. A cannula was inserted into a femoral vein for injection of angiotensin I or II, and a second cannula was inserted into a common carotid artery for direct measurement of arterial blood pressure. Heparin, 1,000 units, was injected via the femoral vein to prevent coagulation. Blood pressure was measured with a pressure transducer connected to a polygraph. The rats were injected with 160 ng of angiotensin I or 80 ng of angiotensin II in 20 μl of 0.9 g % NaCl; an amount of angiotensin I or II sufficient to raise mean arterial blood pressure by 27-40 mm Hg. After the responsiveness of a given rat to angiotensins I and II was established, compound (B) at 10 mg (drug dissolved in 0.5 ml of H2 O plus 10 μl of 1N NaHCO3), was given via a stomach tube. At timed intervals, the effects of 160 ng of angiotensin I or 80 ng of angiotensin II on mean arterial blood pressure were tested. Results are shown below:
Rats (210-290 g body weight) were fasted overnight and then anesthetized with intraperitoneal pentobarbital, 50-60 mg/kg. Tracheostomy was performed and the animals were ventilated mechanically. A cannula was inserted into a femoral vein for injection of angiotensin I, and a second cannula was inserted into a common carotid artery for direct measurement of arterial blood pressure. Heparin, 1,000 units, was injected via the femoral vein to prevent coagulation. Blood pressure was measured with a pressure transducer connected to a polygraph. The rats were injected with 400 ng/kg of angiotensin I in 20 μl of 0.9 g % NaCl; an amount of angiotensin I sufficient to raise mean arterial blood pressure by 39 mm Hg. After the responsiveness of a given rat to angiotensin I was established, the named compound at 17 μmol/kg (drug dissolved in 0.15 ml of H2 O plus 10 μl of 1N NaHCO3), was given via a stomach tube. At timed intervals, the effects of 400 ng/kg of angiotensin I on mean arterial blood pressure were tested. Results are shown below:
Rats (190-290 g body weight) were fasted overnight and then anesthetized with intraperitoneal pentobarbital, 50-60 mg/kg. Tracheostomy was performed and the animals were ventilated mechanically. A cannula was inserted into a femoral vein for injection of angtiotensin I, and a second cannula was inserted into a common carotid artery for direct measurement of arterial blood pressure. […]

[3] = test system: pressor effects of angiotensin I; experiment: intravenous effectiveness: blood pressure response to angiotensin I in anesthetized rats; type: in vivo, rat; conditions: for t1/2: recovery of one half of lost responsiveness to angiotensin I 400 ng/kg; for Blood Pressure Response to 400 ng/kg Angiotensin I: i.v. 2 μmol/kg, Ex. 232
Description: (§1) Anesthetized rats were prepared as described in Example 228. After the responsiveness of a given rat to angiotensin I was established, the named compound at 2 μmol/kg, in a volume of 15 μl of 0.01N sodium bicarbonate, was injected via a femoral vein. At timed intervals, the effects of angiotensin I, 400 ng/kg, on mean arterial blood pressure were tested. Results are shown below:
as §1, with “231.” for “228.”, “compound,” for “compound”
Anesthetized rats were prepared as described in Example 239. The animals were administered the named compound via a femoral vein in 15 μl of 0.01N sodium bicarbonate, after the control response to 400 ng/kg of angiotensin I was measured. […] The time required for recovery of one half of the lost responsiveness to angiotensin I, following injection of the named compound, was designated t1/2. […] Results are shown for two dose levels:
Anesthetized rats were prepared as described in Example 242. The named compound was administered intravenously via a femoral vein, at the stated dose, in 15 μl of 0.01N sodium bicarbonate. The response to intravenous administration was a rapid decrease in responsiveness to Angtiotensin I, 400 ng/kg, followed by a gradual recovery to the pretreatment level of responsiveness. The time required for recovery of one half the lost responsiveness to angiotensin I, following injection of the named compound, is designated t1/2. […] Results are shown for the three dose levels:
The intravenous effectiveness of the named compound was examined by following the procedure described in Example 244 except that 1 μmole/kg of the drug was given intravenously. The results are shown below:
The intravenous effectiveness of the named compound was examined by following the procedure described in Example 246 except that 1 μmole/Kg of the drug was given intravenously.

[4] = human urinary ACE, read-out: I50

O=C(NC(Cc1ccccc1)C(=O)SCCC(=O)N1CCC[C@H]1C(=O)O)c1ccccc1 (stereo partly drawn) [(III), 3-benzoylphenylalanylthio-propanoyl-L-proline]
IC50 [1, 4]: 0.7 µM

C[C@H](CSC(=O)[C@H](Cc1ccccc1)NC(=O)c1ccccc1)C(=O)N1CCC[C@H]1C(=O)O [Example 196, N-[3-(benzoyl-L-phenylalanylthio)-2-D-methyl-propanoyl]-L-proline]
IC50 [1, 4]: 0.016 µM

C[C@H](CSC(=O)[C@@H](Cc1ccccc1)NC(=O)c1ccccc1)C(=O)N1CCC[C@H]1C(=O)O [Example 197, N-[3-(benzoyl-D-phenylalanylthio)-2-D-methyl-propanoyl]-L-proline]
IC50 [1, 4]: 0.009 µM

N[C@@H](CS)C(=O)O [L-cysteine]
IC50 ([1]; I50, human urinary ACE): 200 µM

O=C(O)[C@@H]1CCCN1 [L-proline]
IC50 [1, 4]: 1000 µM

C[C@H](CSC(=O)CNC(=O)c1ccccc1)C(=O)N1CCC[C@H]1C(=O)O [N-alpha-[3-(N-alpha-benzoylglycylthio)-2-D-methylpropanoyl]-L-proline]
Blood Pressure Response to 400 ng/kg of Angiotensin I ([2]; 1 min, Ex. 239): 95 % of Control
Blood Pressure Response to 400 ng/kg of Angiotensin I ([2]; 6 min, Ex. 239): 95 % of Control
Blood Pressure Response to 400 ng/kg of Angiotensin I ([2]; 11 min, Ex. 239): 95 % of Control
Blood Pressure Response to 400 ng/kg of Angiotensin I ([2]; 22 min, Ex. 239): 92 % of Control
Blood Pressure Response to 400 ng/kg of Angiotensin I ([2]; 28 min, Ex. 239): 68 % of Control
Blood Pressure Response to 400 ng/kg of Angiotensin I ([2]; 33 min, Ex. 239): 61 % of Control
Blood Pressure Response to 400 ng/kg of Angiotensin I ([2]; 39 min, Ex. 239): 58 % of Control
Blood Pressure Response to 400 ng/kg of Angiotensin I ([2]; 45 min, Ex. 239): 47 % of Control
Blood Pressure Response to 400 ng/kg of Angiotensin I ([2]; 60 min, Ex. 239): 47 % of Control
Blood Pressure Response to 400 ng/kg of Angiotensin I ([2]; 67 min, Ex. 239): 45 % of Control
Blood Pressure Response to 400 ng/kg of Angiotensin I ([2]; 74 min, Ex. 239): 47 % of Control
Blood Pressure Response to 400 ng/kg of Angiotensin I ([2]; 82 min, Ex. 239): 47 % of Control
Blood Pressure Response to 400 ng/kg of Angiotensin I ([2]; 92 min, Ex. 239): 47 % of Control
Blood Pressure Response to 400 ng/kg of Angiotensin I ([2]; 137 min, Ex. 239): 55 % of Control
Blood Pressure Response to 400 ng/kg of Angiotensin I ([2]; 142 min, Ex. 239): 55 % of Control
Blood Pressure Response to 400 ng/kg of Angiotensin I ([2]; 152 min, Ex. 239): 47 % of Control
Blood Pressure Response to 400 ng/kg of Angiotensin I ([2]; 185 min, Ex. 239): 63 % of Control
Blood Pressure Response to 400 ng/kg of Angiotensin I ([2]; 207 min, Ex. 239): 79 % of Control
Blood Pressure Response to 400 ng/kg of Angiotensin I ([2]; 230 min, Ex. 239): 74 % of Control
t1/2 ([3]; i.v. 0.23 μmol/kg): 26 min
t1/2 ([3]; i.v. 0.7 μmol/kg): 36 min

C[C@H](CSC(=O)[C@H](Cc1ccccc1)NC(=O)[C@H](CCCCNC(=O)OC(C)(C)C)NC(=O)C1CCCC1)C(=O)N1CCC[C@H]1C(=O)O [N-alpha-[3-(N-alpha-cyclopentylcarbonyl-N-epsilon-tert-butyloxycarbonyl-L-lysyl-L-phenylalanylthio)-2-D-methylpropanoyl]-L-proline]
IC50 [1, 4]: 0.025 µM

C[C@H](CSC(=O)[C@H](Cc1ccccc1)NC(=O)OC(C)(C)C)C(=O)N1CCC[C@H]1C(=O)O [N-alpha-[3-(N-alpha-tert-butyloxycarbonyl-L-phenylalanylthio)-2-D-methylpropanoyl]-L-proline]
Blood Pressure Response to 400 ng/kg of Angiotensin I ([2]; 3 min, Ex. 233): 100 % of Control
Blood Pressure Response to 400 ng/kg of Angiotensin I ([2]; 11 min, Ex. 233): 43 % of Control
Blood Pressure Response to 400 ng/kg of Angiotensin I ([2]; 22 min, Ex. 233): 27 % of Control
Blood Pressure Response to 400 ng/kg of Angiotensin I ([2]; 29 min, Ex. 233): 24 % of Control
Blood Pressure Response to 400 ng/kg of Angiotensin I ([2]; 34 min, Ex. 233): 22 % of Control
Blood Pressure Response to 400 ng/kg of Angiotensin I ([2]; 51 min, Ex. 233): 19 % of Control
Blood Pressure Response to 400 ng/kg Angiotensin I ([3]; 0.5 min): 0 % of Control
Blood Pressure Response to 400 ng/kg Angiotensin I ([3]; 3 min): 19 % of Control
Blood Pressure Response to 400 ng/kg Angiotensin I ([3]; 9 min): 19 % of Control
Blood Pressure Response to 400 ng/kg Angiotensin I ([3]; 13 min): 22 % of Control
Blood Pressure Response to 400 ng/kg Angiotensin I ([3]; 18 min): 31 % of Control
Blood Pressure Response to 400 ng/kg Angiotensin I ([3]; 22 min): 31 % of Control
Blood Pressure Response to 400 ng/kg Angiotensin I ([3]; 34 min): 50 % of Control
Blood Pressure Response to 400 ng/kg Angiotensin I ([3]; 47 min): 63 % of Control
Blood Pressure Response to 400 ng/kg Angiotensin I ([3]; 65 min): 78 % of Control
Blood Pressure Response to 400 ng/kg Angiotensin I ([3]; 103 min): 75 % of Control
Blood Pressure Response to 400 ng/kg Angiotensin I ([3]; 113 min): 94 % of Control

O=C(N[C@@H](Cc1ccccc1)C(=O)O)c1ccccc1 [benzoyl-Phe]
IC50 [1, 4]: 400 µM

N[C@@H](CCC(=O)N[C@@H](CS)C(=O)NCC(=O)O)C(=O)O [γ Glu--Cys--Gly (glutathione), γ Glu--Cys--Gly]
IC50 [1, 4]: 40 µM

< Glu--Cys--Pro
IC50 [1, 4]: 4 µM

Bz-Gly-Cys-Pro
IC50 [1, 4]: 0.5 µM

Bz-Phe-Ala-Pro
IC50 [1, 4]: 0.1 µM

Bz-Phe-Cys-Pro
IC50 [1, 4]: 0.6 µM

Cys--Pro
IC50 [1, 4]: 11 µM

Phe--Ala--Pro
IC50 [1, 4]: 0.2 µM

acetyl-Cys--Pro
IC50 [1, 4]: 5 µM

γ Glu--Cys--Pro
IC50 [1, 4]: 11 µM
